Source: PubChem BioAssay (NCI)
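In this assay, cells in 96-well plates receive the compound at five concentrations for 48 hours. Endpoints are linearly interpolated between the surrounding concentrations. GI50 is the concentration that inhibits growth by half. TGI denotes the concentration required for complete inhibition of growth.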

Columns and labels:
Assay in all cases: NCI-60 cell line screen, 48 h
786-0 renal = tested on: 786-0 renal
A498 renal = tested on: A498 renal
A549 NSCLC = tested on: A549 NSCLC
ACHN renal = tested on: ACHN renal
BT-549 breast = tested on: BT-549 breast
CAKI-1 renal = tested on: CAKI-1 renal
CCRF-CEM leukemia = tested on: CCRF-CEM leukemia
COLO 205 colon = tested on: COLO 205 colon
DU-145 prostate = tested on: DU-145 prostate
EKVX NSCLC = tested on: EKVX NSCLC
HCC-2998 colon = tested on: HCC-2998 colon
HCT-116 colon = tested on: HCT-116 colon
HCT-15 colon = tested on: HCT-15 colon
HL-60(TB) leukemia = tested on: HL-60(TB) leukemia
HOP-62 NSCLC = tested on: HOP-62 NSCLC
HOP-92 NSCLC = tested on: HOP-92 NSCLC
HS 578T breast = tested on: HS 578T breast
HT29 colon = tested on: HT29 colon
IGROV1 ovarian = tested on: IGROV1 ovarian
K-562 leukemia = tested on: K-562 leukemia
KM12 colon = tested on: KM12 colon
LOX IMVI melanoma = tested on: LOX IMVI melanoma
M14 melanoma = tested on: M14 melanoma
MALME-3M melanoma = tested on: MALME-3M melanoma
MCF7 breast = tested on: MCF7 breast
MDA-MB-231 breast = tested on: MDA-MB-231 breast
MOLT-4 leukemia = tested on: MOLT-4 leukemia
NCI-H23 lung = tested on: NCI-H23 lung
NCI-H460 lung = tested on: NCI-H460 lung
NCI-H522 lung = tested on: NCI-H522 lung
NCI/ADR-RES ovarian = tested on: NCI/ADR-RES ovarian
OVCAR-4 ovarian = tested on: OVCAR-4 ovarian
OVCAR-5 ovarian = tested on: OVCAR-5 ovarian
OVCAR-8 ovarian = tested on: OVCAR-8 ovarian
PC-3 prostate = tested on: PC-3 prostate
RPMI-8226 leukemia = tested on: RPMI-8226 leukemia
RXF 393 renal = tested on: RXF 393 renal
SF-268 CNS = tested on: SF-268 CNS
SF-295 CNS = tested on: SF-295 CNS
SK-MEL-2 melanoma = tested on: SK-MEL-2 melanoma
SK-MEL-28 melanoma = tested on: SK-MEL-28 melanoma
SK-MEL-5 melanoma = tested on: SK-MEL-5 melanoma
SK-OV-3 ovarian = tested on: SK-OV-3 ovarian
SN12C renal = tested on: SN12C renal
SNB-19 CNS = tested on: SNB-19 CNS
SNB-75 CNS = tested on: SNB-75 CNS
SR leukemia = tested on: SR leukemia
SW-620 colon = tested on: SW-620 colon
T-47D breast = tested on: T-47D breast
TK-10 renal = tested on: TK-10 renal
U251 CNS = tested on: U251 CNS
UACC-257 melanoma = tested on: UACC-257 melanoma
UACC-62 melanoma = tested on: UACC-62 melanoma
UO-31 renal = tested on: UO-31 renal

For `COc1cc(OC)c(/C=C/S(=O)(=O)Cc2ccc(OC)c(NCC(=O)NO)c2)c(OC)c1`, the GI50 (786-0 renal) was 40.9 nM, the TGI (786-0 renal) was > 100000 nM and the GI50 (A498 renal) was < 10 nM. For the same compound, the TGI (A498 renal) was 101 nM, the GI50 (A549 NSCLC) was 36.4 nM and the TGI (A549 NSCLC) was > 100000 nM. For the same compound, the GI50 (ACHN renal) was < 15.2 nM, the TGI (ACHN renal) was > 100000 nM and the GI50 (BT-549 breast) was 22.1 nM. For the same compound, the GI50 (CAKI-1 renal) was < 10 nM, the TGI (CAKI-1 renal) was > 100000 nM and the GI50 (CCRF-CEM leukemia) was 41 nM. For the same compound, the TGI (CCRF-CEM leukemia) was > 100000 nM, the GI50 (COLO 205 colon) was 31.6 nM and the TGI (COLO 205 colon) was 119 nM. The GI50 (DU-145 prostate) was 39.5 nM, the TGI (DU-145 prostate) was > 100000 nM and the GI50 (EKVX NSCLC) was 58 nM. For the same compound, the TGI (EKVX NSCLC) was > 100000 nM, the GI50 (HCC-2998 colon) was 34.6 nM and the TGI (HCC-2998 colon) was > 100000 nM. For the same compound, the GI50 (HCT-116 colon) was 19.8 nM, the GI50 (HCT-15 colon) was 13.1 nM and the TGI (HCT-15 colon) was > 100000 nM. It also gave a GI50 (HL-60(TB) leukemia) of 19.1 nM, a TGI (HL-60(TB) leukemia) of 59.3 nM and a GI50 (HOP-62 NSCLC) of 47.2 nM. The TGI (HOP-62 NSCLC) was > 100000 nM, the GI50 (HOP-92 NSCLC) was 77.7 nM and the TGI (HOP-92 NSCLC) was > 100000 nM. For the same compound, the GI50 (HS 578T breast) was < 14.2 nM, the TGI (HS 578T breast) was > 100000 nM and the GI50 (HT29 colon) was 36.8 nM. For the same compound, the TGI (HT29 colon) was 4840 nM, the GI50 (IGROV1 ovarian) was 24.1 nM and the TGI (IGROV1 ovarian) was > 100000 nM. The GI50 (K-562 leukemia) was < 10 nM, the TGI (K-562 leukemia) was > 100000 nM and the GI50 (KM12 colon) was 10.5 nM. For the same compound, the TGI (KM12 colon) was > 100000 nM, the GI50 (LOX IMVI melanoma) was < 10 nM and the TGI (LOX IMVI melanoma) was > 100000 nM. The GI50 (M14 melanoma) was 22 nM, the TGI (M14 melanoma) was > 100000 nM and the GI50 (MALME-3M melanoma) was > 100000 nM. For the same compound, the TGI (MALME-3M melanoma) was > 100000 nM, the GI50 (MCF7 breast) was 14.2 nM and the TGI (MCF7 breast) was > 100000 nM. For the same compound, the GI50 (MDA-MB-231 breast) was 45.7 nM, the TGI (MDA-MB-231 breast) was > 100000 nM and the GI50 (MOLT-4 leukemia) was 41.5 nM. For the same compound, the TGI (MOLT-4 leukemia) was > 100000 nM, the GI50 (NCI-H23 lung) was 41.4 nM and the TGI (NCI-H23 lung) was > 100000 nM. The GI50 (NCI-H460 lung) was 25.6 nM, the TGI (NCI-H460 lung) was > 100000 nM and the GI50 (NCI-H522 lung) was < 10 nM. For the same compound, the GI50 (NCI/ADR-RES ovarian) was < 10 nM, the TGI (NCI/ADR-RES ovarian) was > 100000 nM and the GI50 (OVCAR-4 ovarian) was 46100 nM. For the same compound, the TGI (OVCAR-4 ovarian) was > 100000 nM, the GI50 (OVCAR-5 ovarian) was 53.5 nM and the TGI (OVCAR-5 ovarian) was > 100000 nM. The GI50 (OVCAR-8 ovarian) was 35.6 nM, the TGI (OVCAR-8 ovarian) was > 100000 nM and the GI50 (PC-3 prostate) was 28.5 nM. The TGI (PC-3 prostate) was > 100000 nM, the GI50 (RPMI-8226 leukemia) was 45 nM and the TGI (RPMI-8226 leukemia) was > 100000 nM. For the same compound, the GI50 (RXF 393 renal) was < 11 nM, the TGI (RXF 393 renal) was > 100000 nM and the GI50 (SF-268 CNS) was 86.3 nM. For the same compound, the TGI (SF-268 CNS) was > 100000 nM, the GI50 (SF-295 CNS) was < 10 nM and the TGI (SF-295 CNS) was > 100000 nM. The GI50 (SK-MEL-2 melanoma) was > 100000 nM, the TGI (SK-MEL-2 melanoma) was > 100000 nM and the GI50 (SK-MEL-28 melanoma) was > 23700 nM. For the same compound, the TGI (SK-MEL-28 melanoma) was > 100000 nM, the GI50 (SK-MEL-5 melanoma) was 18.5 nM and the TGI (SK-MEL-5 melanoma) was 182 nM. For the same compound, the GI50 (SK-OV-3 ovarian) was 69.7 nM, the TGI (SK-OV-3 ovarian) was > 100000 nM and the GI50 (SN12C renal) was 55.5 nM. The TGI (SN12C renal) was > 100000 nM, the GI50 (SNB-19 CNS) was 43.4 nM and the TGI (SNB-19 CNS) was > 100000 nM. The GI50 (SNB-75 CNS) was < 10 nM, the TGI (SNB-75 CNS) was 72.6 nM and the GI50 (SR leukemia) was < 10.4 nM. The TGI (SR leukemia) was > 100000 nM, the GI50 (SW-620 colon) was 27.9 nM and the TGI (SW-620 colon) was > 100000 nM. For the same compound, the GI50 (T-47D breast) was 17800 nM, the TGI (T-47D breast) was > 100000 nM and the GI50 (TK-10 renal) was > 100000 nM. For the same compound, the TGI (TK-10 renal) was > 100000 nM, the GI50 (U251 CNS) was 35.5 nM and the TGI (U251 CNS) was > 100000 nM. For the same compound, the GI50 (UACC-257 melanoma) was > 100000 nM, the TGI (UACC-257 melanoma) was > 100000 nM and the GI50 (UACC-62 melanoma) was < 10 nM. For the same compound, the TGI (UACC-62 melanoma) was > 100000 nM, the GI50 (UO-31 renal) was 72.3 nM and the TGI (UO-31 renal) was > 100000 nM.
